Assay results taken from patent US7858738B2, “Synthetic human peptides and pharmaceutical compositions comprising them for the treatment of systemic lupus erythematosus” (Yeda Research and Development Co., Ltd., priority 2001, dated 2010).

Key:
PBL of SLE patients = assay: IL-2 secretion by PBL of SLE patients stimulated with the human 16/6Id mAb (CTLL line); format: cell-based; settings: for patients whose PBL IL-2 secretion was inhibited: 23 responders stimulated by the human 16/6Id; for Maximum inhibition % (IL-2 secretion): PBL of 23 responders; for Maximum inhibition % (IL-2 secretion) / Inhibitory Activity* % (IL-2 secretion): IL-2 secretion with 16/6 Id alone = 100%; for inhibition of the IL-2 secretion by PBL: PBL of one SLE patient, FIG. 8; for Inhibitory Activity* % (IL-2 secretion): share of 23 responders with inhibition of 50% or more
Description: It was of interest to find out whether the hCDR peptides are capable of inhibiting IL-2 secretion by PBL of SLE patients following stimulation with the human 16/6Id mAb. […] To this end, PBL of SLE patients were incubated with the human 16/6Id mAb in the absence or presence of the peptides hCDR1 or hCDR3. Supernatants of the cultures were collected following 48 hours of incubation. Assays to determine levels of IL-2 in the supernatants were performed using the CTLL IL-2 dependent line. Briefly, cells of the CTLL line (2×10^4/well) were incubated in the presence of the different supernatants for 24 hours, followed by the addition of ^3H-thymidine for an additional 18-hour incubation period. Cells were then harvested and radioactivity counted using a β-counter. Results were calculated based on recombinant human IL-2 used as a standard. The ability of the peptides to inhibit the IL-2 secretion of PBL of 23 responders stimulated by the human 16/6Id was tested. […] Inhibition of proliferative responses of PBL directly correlated with IL-2 inhibition by the CDR-based peptides.

[1] = system: lymph node cultures of BALB/c mice; assay: Cytokines in supernatants of 16/6Id-stimulated lymph node cultures of BALB/c mice with experimental SLE; format: in vivo; settings: after 10 treatment injections
Description: Induction and treatment of experimental SLE. In order to induce experimental SLE, BALB/c mice were immunized with 1-2 μg of the human mAb 16/6Id and boosted 3 weeks later. For the prevention of experimental SLE, mice were given hCDR1 or hCDR3 (mCDR1 or revmCDR1 as control peptide in Example 12) intravenously (i.v.) or s.c. concomitant with the immunization, and were injected weekly thereafter for 5 weeks. Treatment of an established disease started three and a half months following disease induction with the 16/6Id, when clinical manifestations were already observed. In Example 12, mice received 10 weekly injections (i.v. or s.c.) of mCDR1 or revmCDR1 at a dose of 100 μg/mouse. Prevention and treatment of SLE-like disease in (NZB×NZW)F1 mice with the hCDR1 or mCDR1 peptide. For prevention of SLE, mice at the age of 2 months, before disease manifestations are observed, were injected s.c. with hCDR1 (or mCDR1 in Example 12, 250 μg/mouse) once a week for 10 weeks. To treat an established disease, mice at the age of 5-7 months were injected with hCDR1 (in Example 12, mCDR1 s.c., 250 μg/mouse) once a week for 10 weeks. Proliferative Responses. PBL were isolated from heparinized venous blood by Ficoll-Hypaque (Pharmacia) density-gradient centrifugation. All assays were performed, in triplicate, in flat-bottomed microtiter plates (Falcon, Becton Dickinson, Oxmard, Calif., USA) in which 2×10^5 PBL were cultured in enriched RPMI-1640 as described (Dayan et al., 2000). The PBL were exposed to various concentrations (0.1-40 μg/well) of the human anti-DNA 16/6Id mAb with and without the addition of the various CDR-based peptides at a concentration of at least 10-fold excess over that of the 16/6Id. Phytohemagglutinin (PHA; 2 μg/well) was used as a control for culture conditions at each experiment. The cultures were incubated in 7.5% CO2 at 37° C. for 6 days. Eighteen hours before the cells were harvested, [^3H]-thymidine (0.5μ Ci of 5 Ci/mmol) (Nuclear Research Center, Negev, Israel) was added to all cultures. Results are expressed as the mean thymidine incorporation in counts per minute (CPM) of triplicate culture±SD, or as stimulation index (S.I.; the ratio of mean CPM at the optimal concentration of the human 16/6Id to the mean CPM in the presence of medium alone). […] TGF-β was determined by an ELISA. […] The substrate solution used was TMB color Reagent (Helix Diagnostics, West Sacramento, Calif.), and enzyme activity was evaluated by using 570- and 630-nm filters. […] Proteinuria was measured semiquantitatively by using Combistix kit (Ames Division, Bayer Diagnostics, Newbury, U.K.). White blood cells (WBC, for leukopenia) were counted after a 10-fold dilution of heparinized blood in distilled water containing 1% acetic acid (vol/vol). […]

(NZB×NZW)F1 mice = assay: Transfer of splenocytes of peptide-treated mice into (NZB×NZW)F1 mice with full-blown disease; format: in vivo
Source text: It was of importance to investigate whether the beneficial effects of treatment with hCDR1, that are manifested by the down-regulation of disease manifestations, can be transferred by spleen cells of treated mice. To this end, we have performed an experiment in which 8-month old (NZB×NZW)F1 mice, that suffer already from the full-blown lupus-like disease, were divided into 2 groups. Group 1 was not treated and mice of group 2 were transferred with 20×10^6 spleen cells of 3-month old (NZB×NZW)F1 mice that were injected 3 times (s.c., every other day) with 300 μg/mouse of hCDR1. All splenocytes were injected intraperitoneally. Mice were tested for anti-dsDNA autoantibody production, disease manifestations, and were sacrificed 4 weeks after cell transfer.
The experiment was repeated a few more times using revhCDR1 as control.

In the case of “YYCARGLLRGGWNDVDYYGMDV (Human) [hCDR3, peptide based on the CDR3 of the heavy chain of the human 16/6Id mAb]”, the “patients whose PBL IL-2 secretion was inhibited” value (PBL of SLE patients) is reported as 19/23, the “Maximum inhibition % (IL-2 secretion)” value (PBL of SLE patients) is reported as 78 ± 34% and the “inhibition of the IL-2 secretion by PBL” value (PBL of SLE patients) is reported as 100%. For the same sequence, the “Inhibitory Activity* % (IL-2 secretion)” value (PBL of SLE patients) was 83 (19/23) %.
With “GYYWSWIRQPPGKGEEWIG (Human) [hCDR1, 19-mer peptide based on the CDR1 of the heavy chain of the human 16/6Id mAb]” the “patients whose PBL IL-2 secretion was inhibited” value (PBL of SLE patients) was 21/23, the “Maximum inhibition % (IL-2 secretion)” value (PBL of SLE patients) was 84 ± 31% and the “inhibition of the IL-2 secretion by PBL” value (PBL of SLE patients) was 100%. For the same sequence, the “Inhibitory Activity* % (IL-2 secretion)” value (PBL of SLE patients) was 91 (21/23) %, the “levels of TGF-β” value ([1]; FIG. 15D, 15E (spleen cells)) was “up-regulated” and the “INF-γ in supernatants of 16/6Id stimulated lymph node cultures” value ([1]; both doses (200 and 300 μg), FIG. 15A) was “down regulated”. The “TNF-α in supernatants of 16/6Id stimulated lymph node cultures” value ([1]; both doses (200 and 300 μg), FIG. 15B) was “down regulated”, the “IL-10 in supernatants of 16/6Id stimulated lymph node cultures” value ([1]; both doses (200 and 300 μg), FIG. 15C) was “down regulated” and the “Proteinuria g/L ± SEM” value ((NZB×NZW)F1 mice; Table 13, recipients of 20 × 10^6 spleen cells from mice treated 3 times s.c. with 300 μg/mouse, non-treated 15.07 ± 4.92) was 0.97 ± 0.67 g/L. For the same sequence, the “I.C.D ± SEM” value ((NZB×NZW)F1 mice; Table 13, recipients of 20 × 10^6 spleen cells from treated mice, non-treated 2.25 ± 0.47) was 0.75 ± 0.47, the “I.C.D ± SEM” value ((NZB×NZW)F1 mice; Table 14 (repeat experiment), recipients of 20 × 10^6 spleen cells from treated mice, non-treated 2.3 ± 0.26) was 1.33 ± 0.35 and the “Proteinuria g/L ± SEM” value ((NZB×NZW)F1 mice; Table 14 (repeat experiment), recipients of 20 × 10^6 spleen cells from treated mice, non-treated 10.9 ± 3.05) was 2.91 ± 1.6 g/L. The “levels of anti-DNA antibodies” value ((NZB×NZW)F1 mice; transfer of cells of treated mice, 4 weeks after cell transfer) was “mild reduction”.
